Measurements: patent US10227331B2 (priority 2015, dated 2019)
Like-named read-outs stand apart in the source and are kept apart here.

Assays:
[1] = system: Serratia marcescens expressing IMP-1 (CL5741); type: cell-based; conditions: with imipenem 1 μg/ml, 95% inhibition of bacterial growth; for Serratia marcescens MITC95: IMP-1 (CL5741)
Summary of the method: (§1)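 Restoration of imipenem susceptibility (1 μg/ml imipenem) was judged by absorbance after 22–24 h at 35° C. Test compound was added to bacteria suspended 1:100 in 1.1× CAMHB from overnight blood-agar cultures.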

[2] = system: Escherichia coli expressing NDM-1 (CLB30005, CLB30016); type: cell-based; conditions: with imipenem 1 μg/ml, 95% inhibition of bacterial growth; for Escherichia coli MITC95: NDM-1 (CLB30016)
Summary of the method: as §1

[3] = system: Klebsiella pneumoniae expressing VIM-1 (IHMA599644); type: cell-based; conditions: with imipenem 1 μg/ml, 95% inhibition of bacterial growth; for Klebsiella pneumoniae MITC95: VIM-1 (IHMA599644)
Summary of the method: as §1

VIM-1 = VIM-1 (Pseudomonas aeruginosa (strain ATCC 15692 / DSM 22644 / CIP 104116 / JCM 14847 / LMG 12228 / 1C / PRS 101 / PAO1), UniProt A0A0F7KYQ8); assay: biochemical; conditions: CCF2-FA substrate, 2 hours at 25° C
Summary of the method: (§2)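 Enzyme activity was measured by fluorescence using CCF2-FA, a cephalosporin-linked 7-hydroxycoumarin/fluorescein substrate, with inhibitor, metallo-β-lactamase and substrate incubated together for 2 hours at 25° C. IC50 came from a 4-parameter fit of inhibition versus log inhibitor concentration.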

NDM-1 = NDM-1 (Klebsiella pneumoniae, UniProt C7C422); assay: biochemical; type: biochemical; conditions: CCF2-FA substrate, 2 hours at 25° C; read-out: NDM-1 IC50
Summary of the method: as §2

IMP-1 = IMP-1 (Serratia marcescens, UniProt P52699); assay: biochemical; type: biochemical
Summary of the method: as §2

[4] = system: P. aeruginosa expressing IMP-1, efflux− (MB9799); assay: Efflux: concentration of MBL inhibitor which restores susceptibility to imipenem; type: cell-based, Pseudomonas aeruginosa; conditions: imipenem at 2 μg/mL, in the presence of a class A, C, D serine β-lactamase inhibitor closely related to relebactam
Text: (§3) The strain background is Pseudomonas aeruginosa PAO1.

[5] = system: P. aeruginosa expressing IMP-1, efflux+ (MB9798); type: cell-based, Pseudomonas aeruginosa; conditions: for P. aeruginosa expressing IMP-1, efflux+ (MB9798) MITC95: imipenem at 2 μg/mL, in the presence of a class A, C, D serine β-lactamase inhibitor closely related to relebactam; for Efflux ratio: ratio MITC95 PA_9798/MITC95 PA_9799
Text: as §3

[6] = CCF2-FA substrate, 2 hours at 25° C, read-out: IMP-1 IC50

NDM-1, sequence (C7C422 whole entry, looked up, species assumed): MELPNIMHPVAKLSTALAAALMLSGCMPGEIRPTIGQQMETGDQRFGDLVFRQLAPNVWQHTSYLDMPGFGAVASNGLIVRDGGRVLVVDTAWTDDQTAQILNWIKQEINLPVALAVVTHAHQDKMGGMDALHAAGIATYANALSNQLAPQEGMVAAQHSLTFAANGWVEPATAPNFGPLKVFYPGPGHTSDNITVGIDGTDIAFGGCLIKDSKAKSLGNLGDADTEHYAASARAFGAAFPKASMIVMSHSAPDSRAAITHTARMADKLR
IMP-1, sequence (P52699 whole entry, looked up, species assumed): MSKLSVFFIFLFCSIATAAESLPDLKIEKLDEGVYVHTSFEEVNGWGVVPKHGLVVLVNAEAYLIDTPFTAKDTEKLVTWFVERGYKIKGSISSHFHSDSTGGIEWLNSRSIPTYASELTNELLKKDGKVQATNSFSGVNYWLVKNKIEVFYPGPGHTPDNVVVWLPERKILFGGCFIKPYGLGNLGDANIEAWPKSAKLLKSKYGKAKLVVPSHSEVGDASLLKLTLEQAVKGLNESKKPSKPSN

Row | Structure (SMILES) | Serratia marcescens MITC95 [1] [µM] | Escherichia coli MITC95 [2] [µM] | Klebsiella pneumoniae MITC95 [3] [µM] | IC50 (VIM-1) [nM] | IC50 (NDM-1) [nM] | IC50 (IMP-1; [6]) [nM] | P. aeruginosa expressing IMP-1, efflux− (MB9799) MITC95 [4] [µM] | P. aeruginosa expressing IMP-1, efflux+ (MB9798) MITC95 [5] [µM] | Efflux ratio [5] | Serratia marcescens expressing IMP-1 (CL5741) MITC95 [1] [µM] | Escherichia coli expressing NDM-1 (CLB30016) MITC95 [2] [µM] | Klebsiella pneumoniae expressing VIM-1 (IHMA599644) MITC95 [3] [µM] | IC50 (IMP-1) [nM]
1 | Cn1nc(N)c2c(-c3ccc(S(=O)(=O)C4CNC4)c(S(N)(=O)=O)c3-c3nnn[nH]3)cccc21 [Example 265, 3-(3-amino-1-methyl-1H-indazol-4-yl)-6-(azetidin-3-ylsulfonyl)-2-(1H-tetrazol-5-yl) benzenesulfonamide] | 1.563 | 3.125 | 6.25 | 0.239 | 0.168 | 1.49 | 1.563 | 6.25 | 4.00 |  |  |  | 
2 | NCCS(=O)(=O)c1ccc(-c2cccc(C(=O)N[C@@H]3CCNC3)c2N)c(-c2nn[nH]n2)c1S(N)(=O)=O [Example 377, (R)-2-amino-4′-((2-aminoethyl)sulfonyl)-N-(pyrrolidin-3-yl)-3′-sulfamoyl-2′-(2H-tetrazol-5-yl)-[1,1′-biphenyl]-3-carboxamide] | 1.563 | 1.563 | 3.125 | 0.671 | 1.77 | 1.88 | 1.563 | 3.125 | 2.00 |  |  |  | 
3 | NCCS(=O)(=O)c1ccc(-c2ccnc(N)c2)c(-c2nnn[nH]2)c1S(N)(=O)=O.O=C(O)C(F)(F)F [Example 141, 2-((4-(2-aminopyridin-4-yl)-2-sulfamoyl-3-(1H-tetrazol-5-yl)phenyl)sulfonyl)ethanaminium 2,2,2-trifluoroacetate] |  |  |  | 1.01 | 4.32 | 4.89 | 0.8906 | 6.25 | 7.02 | 0.8906 | 0.25 | 1.781 | 
4 | Nc1nc2cccc(-c3ccc(S(=O)(=O)C4CNC4)c(S(N)(=O)=O)c3-c3nn[nH]n3)c2o1 [Example 28, 3-(2-aminobenzo[d]oxazol-7-yl)-6-(azetidin-3-ylsulfonyl)-2-(2H-tetrazol-5-yl)benzenesulfonamide] |  |  |  | 0.173 | 0.0489 |  | 1.563 | 6.25 | 4.00 | 3.125 | 1.563 | 3.125 | 1.33
5 | Cc1ccc(-c2ccc(S(=O)(=O)C3CNC3)c(S(N)(=O)=O)c2-c2nn[nH]n2)c2sc(N)nc12 [Example 33, 3-(2-amino-4-methylbenzo[d]thiazol-7-yl)-6-(azetidin-3-ylsulfonyl)-2-(2H-tetrazol-5-yl)benzenesulfonamide] |  |  |  | 0.12 | 0.0239 | 0.296 | 1.563 | 3.125 | 2.00 | 1.563 | 1.563 | 3.125 | 
6 | NS(=O)(=O)c1c(S(=O)(=O)C2CNC2)ccc(-c2cccc3cccnc23)c1-c1nnn[nH]1.O=C(O)C(F)(F)F [Example 128, 3-((4-(quinolin-8-yl)-2-sulfamoyl-3-(1H-tetrazol-5-yl)phenyl)sulfonyl)azetidin-1-ium 2,2,2-trifluoroacetate] |  |  |  | 0.314 | 0.134 | 0.524 | 1.563 | 3.125 | 2.00 | 3.125 | 1.563 | 3.125 | 
7 | NS(=O)(=O)c1c(SC2CNC2)ccc(-c2cccc3nccn23)c1-c1nnn[nH]1 [Example 63, 6-(Azetidin-3-ylthio)-3-(imidazo[1,2-a]pyridin-5-yl)-2-(1H-tetrazol-5-yl)benzenesulfonamide] |  |  |  | 30.5 | 5.91 | 125 | 1.781 | 50 | 28.07 | 3.125 | 1 | 3.125 | 
8 | COC(=O)c1cccc(-c2ccc(S(=O)(=O)CCN)c(S(N)(=O)=O)c2-c2nn[nH]n2)c1NCCN [Example 341, Methyl 2-((2-aminoethyl)amino)-4′-((2-aminoethyl)sulfonyl)-3′-sulfamoyl-2′-(2H-tetrazol-5-yl)-[1,1′-biphenyl]-3-carboxylate] | 3.125 | 1.563 | 3.125 | 4.46 | 4.01 | 16.1 | 1.563 | 25 | 15.99 |  |  |  | 
9 | NCCCS(=O)(=O)c1ccc(-c2cccc3sc(N)nc23)c(-c2nn[nH]n2)c1S(N)(=O)=O [Example 194, 3-(2-aminobenzo[d]thiazol-4-yl)-6-(3-aminopropylsulfonyl)-2-(2H-tetrazol-5-yl)benzenesulfonamide] |  |  |  | 0.208 | 0.0908 | 0.154 | 0.7813 | 0.3906 | 0.50 | 0.7813 | 0.7813 | 1.563 | 
10 | Cn1ncc2c(-c3ccc(S(=O)(=O)C4CNC4)c(S(N)(=O)=O)c3-c3nnn[nH]3)cccc21.O=C(O)C(F)(F)F [Example 123, 3-((4-(1-methyl-1H-indazol-4-yl)-2-sulfamoyl-3-(1H-tetrazol-5-yl)phenyl)sulfonyl)azetidin-1-ium 2,2,2-trifluoroacetate] |  |  |  | 0.215 | 0.168 | 1.14 | 1.563 | 25 | 15.99 | 3.125 | 1.563 | 3.125 | 
11 | NCc1nc2c(-c3ccc(S(=O)(=O)C[C@@H](O)CN)c(S(N)(=O)=O)c3-c3nn[nH]n3)cccc2[nH]1 [Example 369, (S)-6-((3-amino-2-hydroxypropyl)sulfonyl)-3-(2-(aminomethyl)-1H-benzo[d]imidazol-4-yl)-2-(2H-tetrazol-5-yl) benzenesulfonamide] | 0.7813 | 0.7813 | 1.563 | 0.401 | 0.973 | 3.57 | 0.7813 | 0.7813 | 1.00 |  |  |  | 
